According to EP0785195A1, “Piperidine or tetrahydropyridine derivatives having affinity for the serotonin 5-HTIA receptor” (AMERICAN HOME FOOD PRODUCTS, INC., priority 1996, dated 1997):

Biological target: T1, 5-HT1A serotonin receptor (Rattus norvegicus, UniProt P19327)
T1 construct: from tissue; host or cells: rat brain membranes (inferred from the cited Hall et al. procedure)
T1 sequence (P19327 1-422): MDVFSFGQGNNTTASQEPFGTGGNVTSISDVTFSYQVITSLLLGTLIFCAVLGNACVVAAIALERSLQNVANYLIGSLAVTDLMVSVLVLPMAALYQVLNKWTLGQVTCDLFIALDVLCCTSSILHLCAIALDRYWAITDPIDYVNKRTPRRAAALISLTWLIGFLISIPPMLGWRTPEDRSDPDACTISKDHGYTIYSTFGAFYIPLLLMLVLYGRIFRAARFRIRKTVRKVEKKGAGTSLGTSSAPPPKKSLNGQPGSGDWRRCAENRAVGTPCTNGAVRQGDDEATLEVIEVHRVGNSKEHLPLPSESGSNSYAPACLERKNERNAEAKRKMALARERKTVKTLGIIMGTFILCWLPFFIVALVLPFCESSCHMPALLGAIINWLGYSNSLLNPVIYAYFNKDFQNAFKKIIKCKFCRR
Assay: displacement of [3H] 8-OHDPAT from the 5-HT1A serotonin receptor (procedure of Hall et al.)
Type: binding
Source text: 8-OHDPAT (dipropylaminotetralin) from the 5-HT1A serotonin receptor following the procedure of Hall et al., J. Neurochem. 44, 1685 (1985).

Compound | IC50 [nM]
C[C@H](CN1CC=C(c2cccc3[nH]ccc23)CC1)N(C(=O)C1CCCCC1)c1ccccn1 [Example 2] | 1.7
C[C@H](CN1CC=C(c2cccc3[nH]ccc23)CC1)Nc1ccccn1 [Example 1, {(R)-2-[4-(1H-Indol-4-yl)-(1,2,3,6-tetrahydro-pyridin-1-yl)]-1-methyl-ethyl}-(pyridin-2-yl)-amine] | 11.6
